Among the test systems are ACHN renal; CAKI-1 renal; COLO 205 colon; HT29 colon; MCF7 breast; MOLT-4 leukemia; OVCAR-5 ovarian; SF-295 CNS; SK-MEL-2 melanoma; UACC-257 melanoma.
What all share (test): NCI tumour cell line growth inhibition, 48 h

SMILES strings stand for the structures. Where “and” joins values, the source holds several entries; their conditions need not be identical. Identical values can stand only once.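 96-well plates; 48 h exposure; 5 concentrations. Endpoints by linear interpolation between flanking doses. Not reached: highest tested concentration assigned. Abbreviation: GI50, concentration required for 50% inhibition of growth. TGI is the concentration that stops growth completely.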

With `COC(=O)CCC(C)[C@H]1CCC2C3C(C[C@H](OC(C)=O)[C@@]21C)[C@@]1(C)CCC2(C[C@H]1C[C@H]3OC(C)=O)OOC1(CCC(C)CC1)OO2` (stereo partly drawn), the TGI in the assay with ACHN renal is 61.7 µM and > 100 µM; in the assay on CAKI-1 renal, over 100 µM; with COLO 205 colon, over 100 µM; in the assay with HT29 colon it was over 100 µM; in the assay with MCF7 breast it was over 100 µM; in the assay with MOLT-4 leukemia, over 100 µM. Further, the TGI with OVCAR-5 ovarian, in the assay on SF-295 CNS, in the assay on SK-MEL-2 melanoma and with UACC-257 melanoma was over 100 µM throughout. Further, the GI50 in the assay with CAKI-1 renal is 5.26 µM and 15.8 µM; in the assay on COLO 205 colon, 8.13 µM and 48.8 µM; in the assay with MCF7 breast it was 5.62 µM and 38.4 µM; with MOLT-4 leukemia, 2.86 µM and 25.5 µM; with SF-295 CNS, > 100 µM and 47.1 µM; in the assay with SK-MEL-2 melanoma, 21.9 µM and 64.9 µM. Further, in the assay on UACC-257 melanoma, the GI50 is 8.83 µM and 25.2 µM.
Regarding `COc1cc(NS(C)(=O)=O)ccc1Nc1c2ccccc2nc2c(C)cccc12`, the GI50 was 0.0427 µM and 0.0464 µM in the assay on ACHN renal; 0.073 µM and 0.0923 µM in the assay with CAKI-1 renal; 0.245 µM and 0.243 µM in the assay on COLO 205 colon; 0.443 µM and 0.372 µM in the assay on HT29 colon; 0.0248 µM and 0.0337 µM in the assay on MCF7 breast; 0.0245 µM and 0.0304 µM in the assay with MOLT-4 leukemia. Also, the GI50 in the assay on OVCAR-5 ovarian is 0.571 µM and 0.572 µM; with SF-295 CNS, 0.0399 µM and 0.0874 µM; with SK-MEL-2 melanoma it was 6.54 µM and 1.72 µM; in the assay on UACC-257 melanoma it was 0.792 µM and 0.639 µM. Besides, the TGI with ACHN renal was 1.28 µM and 1.57 µM; in the assay with CAKI-1 renal it was 4.6 µM and 5.71 µM; in the assay with COLO 205 colon it was 2.59 µM and 5.16 µM; in the assay with HT29 colon, 8.98 µM and 2.09 µM; with MCF7 breast, 4.42 µM and 11.9 µM; in the assay with MOLT-4 leukemia, 0.229 µM and 0.176 µM. The TGI was 13.9 µM and 11.9 µM with OVCAR-5 ovarian; 0.386 µM and 3.46 µM with SF-295 CNS; 20.8 µM and 10.4 µM in the assay with SK-MEL-2 melanoma; 12.1 µM and 13.5 µM in the assay with UACC-257 melanoma.
As for `CC1=CC[C@@H]2C(C)(C)C(=O)CC[C@@]2(C)[C@@H]1COc1ccc2ccc(=O)oc2c1`, the GI50 in the assay with ACHN renal was 15.3 µM; in the assay on CAKI-1 renal, 9.5 µM; with COLO 205 colon, 10.6 µM; in the assay on HT29 colon, 23.8 µM; in the assay with MCF7 breast, 12.4 µM; with MOLT-4 leukemia, 3.79 µM. Moreover, the GI50 in the assay on OVCAR-5 ovarian was 25.9 µM; with SF-295 CNS, 15.5 µM; in the assay on SK-MEL-2 melanoma it was 11.5 µM; in the assay on UACC-257 melanoma it was 12.3 µM. Also, the TGI with ACHN renal was 79.9 µM; in the assay on CAKI-1 renal, 80.8 µM; in the assay with COLO 205 colon it was 39.4 µM; in the assay with HT29 colon, over 100 µM; with MCF7 breast, 31.9 µM; in the assay on MOLT-4 leukemia, 17.9 µM. Also, the TGI with OVCAR-5 ovarian was over 100 µM; with SF-295 CNS it was 44.3 µM; in the assay on SK-MEL-2 melanoma, 42.3 µM; with UACC-257 melanoma it was 31 µM.
In the case of `Cc1csc(/C=N/NC(=O)c2nnn(-c3ccnc4c(C(F)(F)F)cccc34)c2C)c1`, the GI50 in the assay with ACHN renal is 63.8 µM; in the assay on CAKI-1 renal, 64.6 µM; in the assay on COLO 205 colon it was 34.2 µM; with HT29 colon, 10.1 µM; with MCF7 breast it was over 100 µM; with MOLT-4 leukemia, 48.8 µM. In addition, the GI50 in the assay on OVCAR-5 ovarian is over 100 µM; with SF-295 CNS it was 34.7 µM; in the assay with SK-MEL-2 melanoma it was over 100 µM; in the assay with UACC-257 melanoma, 14 µM. Also, the TGI was over 100 µM in the assay with ACHN renal; over 100 µM with CAKI-1 renal; over 100 µM in the assay with COLO 205 colon; 82.5 µM with HT29 colon; over 100 µM with MCF7 breast; over 100 µM in the assay with MOLT-4 leukemia. Besides, the TGI in the assay with OVCAR-5 ovarian was over 100 µM; in the assay with SF-295 CNS it was over 100 µM; with SK-MEL-2 melanoma, over 100 µM; in the assay with UACC-257 melanoma it was 51.4 µM.
Turning to `COC1C(O)C(C)OC(OC2C(Oc3cccc4c(O)c5c(=O)oc6ccc(C)c7c(=O)oc(c34)c5c67)OC(C)C3O[C@H](c4ccccc4)OC32)C1O` (stereo partly drawn), the GI50 with ACHN renal is 0.0276 µM; in the assay with CAKI-1 renal, 0.134 µM; in the assay on COLO 205 colon, 0.258 µM and 0.204 µM; in the assay on MCF7 breast it was 0.225 µM; in the assay with MOLT-4 leukemia, 0.0334 µM and 0.0236 µM; in the assay with SK-MEL-2 melanoma, 0.937 µM. Also, the GI50 in the assay with UACC-257 melanoma is 0.798 µM and 0.372 µM. The TGI is 0.616 µM and 5.28 µM with CAKI-1 renal; 5.59 µM in the assay with COLO 205 colon; 10.2 µM in the assay on HT29 colon; 4.12 µM with MCF7 breast; 11.5 µM in the assay with MOLT-4 leukemia; 12.7 µM in the assay on OVCAR-5 ovarian. For the same compound, the TGI was 3.97 µM in the assay on SF-295 CNS, 6.07 µM with SK-MEL-2 melanoma and 3.86 µM in the assay on UACC-257 melanoma.
Regarding `O=C(/C=C/c1ccccc1)c1c[nH]c2ccccc2c1=O`, the GI50 in the assay with ACHN renal was 3.01 µM; in the assay on CAKI-1 renal, 1.97 µM; with COLO 205 colon it was 2.39 µM; in the assay on HT29 colon, 3.15 µM; in the assay with MCF7 breast, 2.33 µM; in the assay on MOLT-4 leukemia, 3.16 µM. For the same compound, the GI50 is 3.87 µM in the assay on OVCAR-5 ovarian, 2.31 µM in the assay with SF-295 CNS, 2.42 µM in the assay on SK-MEL-2 melanoma and 3.56 µM in the assay with UACC-257 melanoma. The TGI in the assay with ACHN renal was 11.7 µM; in the assay on CAKI-1 renal it was 6.22 µM; with COLO 205 colon, 4.68 µM; in the assay on HT29 colon, 10.6 µM; with MCF7 breast it was 12.6 µM; with MOLT-4 leukemia, 20.8 µM. Further, the TGI with OVCAR-5 ovarian came out at 17 µM; in the assay on SF-295 CNS, 7.18 µM; in the assay on SK-MEL-2 melanoma, 5.72 µM; in the assay on UACC-257 melanoma it was 15.1 µM.
On to `COc1cc([N+](=O)[O-])c(S(=O)(=O)O)cc1NS(=O)(=O)c1ccc(C)cc1`, for which the TGI in the assay on ACHN renal, with CAKI-1 renal, with COLO 205 colon, with HT29 colon, in the assay on MCF7 breast and in the assay with MOLT-4 leukemia was over 100 µM each time. The TGI in the assay with OVCAR-5 ovarian, in the assay with SF-295 CNS, in the assay on SK-MEL-2 melanoma and with UACC-257 melanoma was over 100 µM each time.
Take `NC1=NC(c2ccc(Cl)cc2)N(c2ccc(S(=O)(=O)Nc3ncccn3)cc2)C(N)=N1` (stereo not drawn): the TGI in the assay with ACHN renal, in the assay with CAKI-1 renal, with COLO 205 colon, in the assay with HT29 colon, in the assay on MCF7 breast and with MOLT-4 leukemia was over 100 µM throughout. Also, the TGI with OVCAR-5 ovarian, in the assay with SF-295 CNS, with SK-MEL-2 melanoma and in the assay on UACC-257 melanoma was over 100 µM in each case.
Take `CCNC(C)(C)C(SS)c1ccc(Br)cc1` (stereo not drawn): the TGI with ACHN renal is over 100 µM; in the assay on CAKI-1 renal, over 100 µM; with COLO 205 colon, over 100 µM; in the assay on HT29 colon it was 69.3 µM; with MCF7 breast, over 100 µM; with MOLT-4 leukemia, 69.3 µM. The TGI with OVCAR-5 ovarian was over 100 µM; in the assay with SF-295 CNS, over 100 µM; in the assay on SK-MEL-2 melanoma it was over 100 µM; with UACC-257 melanoma, 90.8 µM.
In the case of `CN(Cc1cnc(N)nc1N)c1ccc(C(=O)O)cc1`, the GI50 in the assay on ACHN renal, in the assay on CAKI-1 renal, in the assay on COLO 205 colon, with HT29 colon, in the assay on MCF7 breast and in the assay with MOLT-4 leukemia was over 100 µM throughout. In addition, the GI50 in the assay with OVCAR-5 ovarian, in the assay with SF-295 CNS, in the assay with SK-MEL-2 melanoma and with UACC-257 melanoma was over 100 µM throughout. Moreover, the TGI in the assay with ACHN renal, with CAKI-1 renal, in the assay on COLO 205 colon, in the assay on HT29 colon, with MCF7 breast and in the assay with MOLT-4 leukemia was over 100 µM throughout. Further, the TGI in the assay with OVCAR-5 ovarian, in the assay on SF-295 CNS, with SK-MEL-2 melanoma and with UACC-257 melanoma was over 100 µM throughout.
`Cn1cc(C2=C(c3c4n(c5ccccc35)CCCC4)C(=O)NC2=O)c2ccccc21`: the GI50 was 20.4 µM in the assay with ACHN renal; 8.1 µM in the assay on CAKI-1 renal; 10.7 µM in the assay with COLO 205 colon; 9.39 µM with HT29 colon; 6.58 µM in the assay with MCF7 breast; over 17.2 µM in the assay with MOLT-4 leukemia. Also, the GI50 with OVCAR-5 ovarian was over 25 µM; with SF-295 CNS it was 7.21 µM; with SK-MEL-2 melanoma, 10.1 µM; in the assay on UACC-257 melanoma, over 21.7 µM. Besides, the TGI with ACHN renal, in the assay with CAKI-1 renal, with COLO 205 colon, in the assay on HT29 colon, in the assay on MCF7 breast and in the assay with MOLT-4 leukemia was over 25 µM throughout. Further, the TGI in the assay on OVCAR-5 ovarian, in the assay with SF-295 CNS, in the assay on SK-MEL-2 melanoma and in the assay with UACC-257 melanoma was over 25 µM in each case.
